Non-standard residues stand in square brackets, D forms with d. Residues, ends and D or L forms follow the SMILES beside them. No end group written: not given here. *: point of attachment. 4Abz = Nc1ccc(C(=O)O)cc1; NHOH = ON*
Legend:
MMP-3 = MMP-3 (Homo sapiens, UniProt P08254); settings: cited from earlier work
MMP-1 [1] = target: T1, MMP-1 (Cavia porcellus, UniProt H0V812); assay: Collagen zymography of arterial clots from FeCl3-injured carotid arteries; format: in vivo, guinea pig
T1 construct: endogenous in cells; host or cells: platelets of Hartley guinea pigs
Procedure: MMP-1 activity with the dots was determined by collagent zymography (see FIG. 6H). Platelets were isolated from guinea pigs and stimulated with 20 μg/ml collagen for 15 min and platelet supernatants and pellets, or whole resting platelets (control), prepared as described Above. Samples were resolved on a 8% type I collagen/acrylamide zymography gel and collagenase zymogram was developed as described by (Gogly et al., 1998) or immunoblotted with MMP1-Ab, AB806. Arterial dots were also removed from the Fe—Cl irnjured carotid arteries from animals (n=5) treated with FN-439 (FN439 clot) or vehicle (veh dot) as in 6F and 6G and dots were dissolved in lysis buffer and passed 5× through a 21-gauge needle. The lysates were centrifuged and supernatents resolved on the zymography gel. The two lanes on the left side of the western blot have 20 ng of proMMP-1 or 20 ng APMA-activated MMP-1, and the right hand lane in the zymogram has 0.5 μg of APMA-activated human MMP-1.

MMP-1 [2] = target: T2, MMP-1 (Homo sapiens, UniProt P03956); settings: cited from earlier work
T2 sequence (P03956 100-469): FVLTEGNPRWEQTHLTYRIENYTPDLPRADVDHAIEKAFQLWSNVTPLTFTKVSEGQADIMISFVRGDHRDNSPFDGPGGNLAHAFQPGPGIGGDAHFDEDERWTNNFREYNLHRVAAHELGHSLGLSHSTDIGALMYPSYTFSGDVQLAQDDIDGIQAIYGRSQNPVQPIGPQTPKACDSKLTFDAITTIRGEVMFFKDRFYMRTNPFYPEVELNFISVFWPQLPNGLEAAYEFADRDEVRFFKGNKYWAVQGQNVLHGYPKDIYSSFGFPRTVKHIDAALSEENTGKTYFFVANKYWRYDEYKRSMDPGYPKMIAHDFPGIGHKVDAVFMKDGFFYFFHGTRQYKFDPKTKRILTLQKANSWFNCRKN

PAR1 [3] = assay: Release of PAR1 N-terminal cleavage peptide from gel-filtered platelets (dot blot, IIaR-A antibody); format: cell-based, human
Description: To further understand how collagen is able to activate significant amounts of endogenous MMP-1 collagenase activity on the surface of platelets, experiments were devised to determine if PAR-1 is cleaved in either an autocrine or paracrine manner following exposure to collagen. Using a monoclonal antibody raised against the amino-terminal thrombin-cleavage peptide region of PAR1, residues 32-46 (Loew et al., 2000), the relative abilities of thrombin, MMP-1 and collagen to cause cleavage of platelet PAR1 was assessed. Gel filtered platelets were treated for 10 min with thrombin (3 nM), MMP-1 (3 nM), collagen (5 μg/ml), in the presence or absence (PBS buffer) of 0.00013 U hirudin or 5 μM FN-439 at 37° C. Supernatants were concentrated 20-fold and applied to nitrocellulose membranes, then probed with the IIaR-A monoclonal antibody. The PAR1 N-terminal thrombin deavage peptide (A26-R41) and PAR1 flexible linker peptide (N-acetyl-T67-L84 -C) (Kuliopulos et al., 1999) served as positive and negative controls (100 ng), respectively.
These platelets were then stimulated with collagen (5 μg/ml) for 10 min. at 37° C. Supernatants were concentrated 20-fold and applied to nitrocellulose membranes, then probed with the IIaR-A monoclonal antibody. […] FN-439, or an MMP1-blocking antibody (20 μg/ml) but not by thrombin inhibitor, hirudin (see FIG. 1E, FIG. 1G).

platelets [4] = assay: Clot retraction assay in human platelet-rich plasma, collagen initiated; format: cell-based; settings: 2.5-5 μg/ml collagen (titration 1-20 μg/ml); FN-439 5 μM, RWJ-56110 1 μM, MMP9/13 Inh 10 nM; 90 or 240 min
Procedure: Platelet rich plasma (PRP) was isolated from human whole blood anti-coagulated with 4% sodium citrate. Clot retraction assays were done in 1 ml volumes containing 800 μl PBS and 200 μl PRP plus 10 μl red blood cells to enhance contrast. Samples were pretreated with FN-439 (5 μM), MMP9/13 Inh (10 nM) or RWJ-56110 (1 μM) for 15 min and clot formation was initiated with 1-20 μg/ml type I fibrillar collagen. Samples were incubated at 37° C. for 90 or 240 min and then photographed with a digital camera. Each photograph in FIG. 6I is representative of three independent experiments.

MMP-8 = MMP-8 (Homo sapiens, UniProt P22894); settings: cited from earlier work
PAR1 [5] = assay: P1pal-7 ammonium acetate salt: IC50 and PAR1 specificity (test not described); settings: ammonium acetate salt of P1pal-7 in 100% water
platelets [6] = assay: Collagen-dependent aggregation of gel-filtered human platelets (light transmittance); format: cell-based; settings: 5 μg/ml collagen; 1,10-PA 100 μM, MMP-200 200 nM, FN-439 3 μM, RWJ-56110 1 μM, PAR1 Ab 75 μg/ml, pepducins 3 μM, PPACK 200 μM, hirudin 1 U/ml
Procedure: Platelet pellets and their supernatants were prepared as follows. […] following established informed consent procedures. […] Alternatively, whole blood was obtained from Hartley Sprague guinea pigs (drawn from the vena cava) into 3% citrate plus 10 U/ml heparin. Washed platelets from the guinea pigs were prepared in PIPES buffer. Platelet aggregation was measured with a Chronolog 560VS/490-2D aggregometer using modified PIPES buffer as a blank. Samples were incubated for 5 min in the presence of inhibitors and 1.8 mM CaCl2 prior to addition of agonist. All reactions were in final volumes of 250 μl at 37° C. while stirring at 900 rpm.
The effect of pharmacologic blockage of metalloproteases or PAR1 on collagen-dependent platelet aggregation was then tested (see FIG. 5). Gel-filtered platelets from healthy individuals (supplemented with 0.3 mg/ml fibrinogen) were challenged with 5 μg/ml collagen in the presence or absence (0.2% DMSO vehicle) of the indicated inhibitors and allowed to stir at 900 rpm in an aggregometer cuvette (250 μL) at 37° C.
In FIG. 5A, platelet aggregation was monitored by light transmittance.

Chain of MMP-8 (P22894 101-467, species assumed): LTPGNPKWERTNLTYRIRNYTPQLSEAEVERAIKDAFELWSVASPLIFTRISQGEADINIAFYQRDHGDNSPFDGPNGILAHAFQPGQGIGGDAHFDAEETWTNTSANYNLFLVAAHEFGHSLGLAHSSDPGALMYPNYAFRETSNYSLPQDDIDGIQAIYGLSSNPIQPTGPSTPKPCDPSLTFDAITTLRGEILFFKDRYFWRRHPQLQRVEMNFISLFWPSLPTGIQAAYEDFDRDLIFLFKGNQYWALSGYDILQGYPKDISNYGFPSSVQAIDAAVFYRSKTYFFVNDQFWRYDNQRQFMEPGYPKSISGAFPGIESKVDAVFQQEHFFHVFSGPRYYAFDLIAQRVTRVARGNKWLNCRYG
Chain of MMP-3 (P08254 100-477, species assumed): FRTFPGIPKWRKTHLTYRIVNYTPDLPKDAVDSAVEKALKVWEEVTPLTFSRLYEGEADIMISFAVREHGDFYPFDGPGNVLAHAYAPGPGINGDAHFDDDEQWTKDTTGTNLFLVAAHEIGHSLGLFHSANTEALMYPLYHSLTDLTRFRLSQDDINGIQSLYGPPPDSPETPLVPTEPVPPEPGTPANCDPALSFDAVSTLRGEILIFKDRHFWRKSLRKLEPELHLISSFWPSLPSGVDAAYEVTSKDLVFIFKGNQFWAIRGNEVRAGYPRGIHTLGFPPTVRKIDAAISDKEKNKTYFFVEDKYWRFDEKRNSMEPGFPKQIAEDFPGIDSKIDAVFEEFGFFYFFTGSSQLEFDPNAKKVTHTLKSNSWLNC
T1 sequence (H0V812 1-472): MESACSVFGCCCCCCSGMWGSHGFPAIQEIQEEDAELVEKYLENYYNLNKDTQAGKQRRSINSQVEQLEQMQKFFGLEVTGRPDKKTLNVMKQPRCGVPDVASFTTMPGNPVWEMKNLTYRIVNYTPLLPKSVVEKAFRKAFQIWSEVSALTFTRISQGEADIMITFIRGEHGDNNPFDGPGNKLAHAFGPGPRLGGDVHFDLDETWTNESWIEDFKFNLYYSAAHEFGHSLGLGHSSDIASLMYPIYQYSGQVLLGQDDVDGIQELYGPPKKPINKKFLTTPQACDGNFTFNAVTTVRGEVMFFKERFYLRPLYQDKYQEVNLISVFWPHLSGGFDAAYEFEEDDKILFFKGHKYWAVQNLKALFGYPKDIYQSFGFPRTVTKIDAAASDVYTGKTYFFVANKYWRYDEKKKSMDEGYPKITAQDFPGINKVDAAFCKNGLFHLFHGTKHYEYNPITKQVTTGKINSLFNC

Compound	IC50 (MMP-3)	active MMP-1 in arterial thrombi of treated animals (MMP-1 [1])	IC50 (MMP-1 [2])	block of MMP-1-induced release of N-terminal cleavage peptide of PAR1 (PAR1 [3]; 3 nM MMP-1, 5 μM FN-439)	block of collagen-induced release of PAR1 N-terminal peptide (PAR1 [3]; 5 μg/ml collagen, 10 min, 37° C., Ab 20 μg/ml, ARC 0.5 μM, ASA 1 mM)	inhibition of clot formation and retraction (platelets [4])	IC50 (MMP-8)	specificity for PAR1 (PAR1 [5])	inhibition (loss) of collagen-induced platelet aggregation (platelets [6])
CC(C)C[C@@H](NC(=O)[C@@H]1CCCN1C(=O)CNC(=O)c1ccc(N)cc1)C(=O)N[C@H](C)C(=O)NO [FN-439] (H-[4Abz]GP[dL][dA]-{NHOH})	150000 nM	did not contain active MMP-1	1000 nM	blocked	specifically blocked	completely inhibited	1000 nM		
P1pal-7: PAR1 i3 loop pepducin lipopeptide, KKSRALF (SEQ ID NO. 2), palmitate (also: palmitate, site not given here)								retains specificity for PAR1	identical levels of inhibition as blocking MMP-1
